Read-outs that look alike come from different tables or passages of the source. Blank lines part the entries; values can stand above or below the compound they belong to.
Columns and labels:
[1] = system: T lymphocytes; details: cited from earlier work
[2] = Frey's syndrome, single dermal application; cited from earlier work
[3] = system: Guinea pig tracheal strip preparations; assay: tissue or blood; details: Cavia porcellus, 5 min
Description: Guinea pig tracheal strip preparations were pre-contracted with 5×10^−6 M carbachol for 10 minutes, to induce tone, before incubation with drug. […] Relaxation is expressed as % maximal relaxation induced by 5×10^−4 M papaverine after completion of concentration-response curves. […]

[4] = clinical level, compared with ipratropium; cited from earlier work
[5] = system: Guinea pig tracheal strip preparations; assay: tissue or blood; details: for % Relaxation: % maximal of carbachol-induced tone, DRC to verapamil
Description: Again, guinea pig tracheal strip preparations were pre-contracted with 5×10^−6 M carbachol for 10 minutes before incubation with the pre-treatment drug. The relaxation (% maximal of carbachol-induced tone) induced by the pre-treatment is shown in FIG. 2, for the following groups.

SMILES: CN1[C@@H]2CC[C@H]1C[C@@H](OC(=O)C(CO)c1ccccc1)C2 (some centres unmarked) [atropine, Atropine]
effect on acetylcholine-mediated enhanced T lymphocyte proliferation [1]: abolishes this effect completely

EC50 [3]: 9.23 nM
EC50 ([3]; read-out: -Log EC50 (converted)): 9.12 nM
SMILES: C[N+]1(C)CCC(OC(=O)C(O)(c2ccccc2)C2CCCC2)C1 (centres unmarked) [glycopyrrolate]
duration of action [2]: two day
duration of action in muscarinic antagonism [4]: longer duration of action in muscarinic antagonism than ipratropium
% Relaxation ([5]; Group B, pre-treatment 4 × 10^−9 M): 6.5 ± 0.8%
% Relaxation ([5]; Group C, pre-treatment 4 × 10^−10 M): −0.7 ± 1.4%

SMILES: COc1ccc(CCN(C)CCCC(C#N)(c2ccc(OC)c(OC)c2)C(C)C)cc1OC (centres unmarked) [verapamil]
EC50 ([5]; Cavia porcellus): 5000 nM

From patent publication US20040028734A1, “Use of anti-muscarinic agents and calcium channel blockers in combination” (priority 2000, published 2004)
